SMILES strings stand for the structures.

This data set concerns COS-1 cells. Briefly: In vitro mammalian cytotoxicity assay (Resazurin).
Take `CCOC(=O)CNCc1ccc(-c2ccc(O)c3c2C[C@@]2(N)C[C@@]4(N)[C@H](N(C)C)C(O)=C(C(N)=O)C(=O)[C@@]4(C#N)C(O)=C2C3=O)c2ccccc12` [OQ]: the “In Vitro Cytotoxicity” value was “** (toxicities less than 25 μg/mL are represented by **)”. For the compound `CC(=O)Nc1cccc(-c2ccc(O)c3c2C[C@@]2(N)C[C@@]4(N)[C@H](N(C)C)C(O)=C(C(N)=O)C(=O)[C@@]4(C#N)C(O)=C2C3=O)c1` [GT], the “In Vitro Cytotoxicity” value is listed as “* (toxicities greater than >25 μg/ml are represented by *)”. Under `CN(C)[C@@H]1C(O)=C(C(N)=O)C(=O)[C@@]2(C#N)C(O)=C3C(=O)c4c(O)ccc(I)c4[C@H](N)[C@@]3(N)[C@H](OC(=O)C3CCCCC3)[C@@]12N` [CV] stands “** (toxicities less than 25 μg/mL are represented by **)”; under `CCc1cc(CNC(=O)c2cccnc2)c(O)c2c1C[C@@]1(N)C[C@@]3(N)[C@H](N(C)C)C(O)=C(C(N)=O)C(=O)[C@@]3(C#N)C(O)=C1C2=O` [IY], “* (toxicities greater than >25 μg/ml are represented by *)”. Turning to `CC(CF)Nc1ccc(-c2ccc(O)c3c2C[C@@]2(N)C[C@@]4(N)[C@H](N(C)C)C(O)=C(C(N)=O)C(=O)[C@@]4(C#N)C(O)=C2C3=O)cc1` (stereo partly drawn) [VK], the “In Vitro Cytotoxicity” value was “** (toxicities less than 25 μg/mL are represented by **)”. As to `CN(C)[C@@H]1C(O)=C(C(N)=O)C(=O)[C@@]2(C#N)C(O)=C3C(=O)c4c(ccc(/C=C\C(=O)NC(C)(C)C)c4O)[C@H](N)[C@@]3(N)[C@H](O)[C@@]12N` [JA], the “In Vitro Cytotoxicity” value is “* (toxicities greater than >25 μg/ml are represented by *)”.

`COC(=O)c1ccc(O)c2c1C[C@@]1(N)C[C@@]3(N)[C@H](N(C)C)C(O)=C(C(N)=O)C(=O)[C@@]3(C#N)C(O)=C1C2=O` [RV]: the “In Vitro Cytotoxicity” value is “** (toxicities less than 25 μg/mL are represented by **)”. As for `CNc1ccc(NC(=O)Nc2cc(N(C)C)c3c(c2O)C(=O)C2=C(O)[C@]4(C#N)C(=O)C(C(N)=O)=C(O)[C@@H](N(C)C)[C@]4(N)C[C@]2(N)C3)cc1` [SE], the “In Vitro Cytotoxicity” value was “* (toxicities greater than >25 μg/ml are represented by *)”.

Turning to `COc1ccc(CNC2CCCCC2)cc1-c1ccc(O)c2c1C[C@@]1(N)C[C@@]3(N)[C@H](N(C)C)C(O)=C(C(N)=O)C(=O)[C@@]3(C#N)C(O)=C1C2=O` [LQ], the “In Vitro Cytotoxicity” value is on record as “* (toxicities greater than >25 μg/ml are represented by *)”.

As for `CN(C)[C@@H]1C(O)=C(C(N)=O)C(=O)[C@@]2(C#N)C(O)=C3C(=O)c4c(O)ccc(-c5ccc(NC(=O)Nc6ccc(OC(F)(F)F)cc6)cc5)c4C[C@@]3(N)C[C@@]12N` [PH], the “In Vitro Cytotoxicity” value is “* (toxicities greater than >25 μg/ml are represented by *)”.

As to `Cc1ccc(-c2ccc(O)c3c2C[C@@]2(N)C[C@@]4(N)[C@H](N(C)C)C(O)=C(C(N)=O)C(=O)[C@@]4(C#N)C(O)=C2C3=O)nc1` [VC], the “In Vitro Cytotoxicity” value is recorded as “** (toxicities less than 25 μg/mL are represented by **)”. As for `CN(C)c1cc(CNCc2cccn2C)c(O)c2c1C[C@@]1(N)C[C@@]3(N)[C@H](N(C)C)C(O)=C(C(N)=O)C(=O)[C@@]3(C#N)C(O)=C1C2=O` [SK], the “In Vitro Cytotoxicity” value is “* (toxicities greater than >25 μg/ml are represented by *)”. As to `CCOC(=O)CNCc1ccc(-c2ccc(O)c3c2C[C@@]2(N)C[C@@]4(N)[C@H](N(C)C)C(O)=C(C(N)=O)C(=O)[C@@]4(C#N)C(O)=C2C3=O)cc1` [OS], the “In Vitro Cytotoxicity” value was “** (toxicities less than 25 μg/mL are represented by **)”.

`CN(C)c1cc(-c2cccc(O)c2)c(O)c2c1C[C@@]1(N)C[C@@]3(N)[C@H](N(C)C)C(O)=C(C(N)=O)C(=O)[C@@]3(C#N)C(O)=C1C2=O` [ES]: the “In Vitro Cytotoxicity” value is “** (toxicities less than 25 μg/mL are represented by **)”. Next, `COc1ccc(CNC(C)C)cc1-c1ccc(O)c2c1C[C@@]1(N)C[C@@]3(N)[C@H](N(C)C)C(O)=C(C(N)=O)C(=O)[C@@]3(C#N)C(O)=C1C2=O` [LS]: “* (toxicities greater than >25 μg/ml are represented by *)”.

(Values after patent US20050070510A1, “Substituted tetracycline compounds as synergistic antifungal agents” (Paratek Pharmaceuticals, Inc., priority 2001, published 2005).)
